Patent US20250319026A1, “VITAMIN COMPOSITION FOR ORAL ADMINISTRATION” (priority 2023, published 2025)

Assay: Concentrations of B vitamins obtainable in solution using polysorbate 40 as a solvent
Type: physicochemical
Settings: polysorbate 40 as a solvent in an amount of at least 1.8 wt. %; water
Source text: One of the major disadvantages and drawbacks of the aforementioned prior art references is the absence of both pyridoxine, thiamine, cyanocobalamin in sufficiently high concentrations to ensure the supply of these vitamins to cover the necessary needs of the body.

cyanocobalamin
concentration obtainable in the solution: at least 0.1 wt. %
